In article PMC6271626, “Design, Synthesis, and Biological Evaluation of Artemisinin-Indoloquinoline Hybrids as Potent Antiproliferative Agents” (Molecules, 2014):
Where “and” joins values, the source holds several entries; their conditions need not be identical. Identical values can stand only once. Counter-ions that a name gives are not always drawn. Like-named read-outs stand apart in the source and are kept apart here.

Key:
[1] = tested on: human leukemia MV4-11 cell line; test: Antiproliferative assay in vitro, MTT, MV4-11; assay type: cell-based; conditions: mean ± SD
Protocol: (§1) MV4-11 cells were cultured in the RPMI 1640 medium (IIET, Wroclaw) supplemented with 2 mM L-glutamine and 1.0 mM sodium pyruvate, 10% fetal bovine serum (all from Sigma Aldrich, Germany). HCT116 and A549 cells were cultured in the RPMI1640 + OptiMEM (50:50) medium (IIET, Wroclaw) supplemented with 2 mM L-glutamine and 5% fetal bovine serum (all from Sigma Aldrich, Germany), BALB/3T3 cells were cultured in Dulbecco medium (IIET, Wroclaw) supplemented with 2 mM L-glutamine and 1.0 mM sodium pyruvate, 10% fetal bovine serum (all from Sigma Aldrich, Germany). All culture medium was supplemented with 100 units/mL penicillin and […] streptomycin (both from Polfa, Tarchomin S.A., Warsaw, Poland). All cell lines were grown at 37 °C with 5% CO2 humidified atmosphere.
(§2) Test solutions of the compounds tested (1 mg/mL) were prepared by dissolving the substances in 100 μL of DMSO completed with 900 μL of tissue culture medium. Afterward, the tested compounds were diluted in culture medium to reach the final concentrations of 10, 1, 0.1, 0.01 μg/mL. Twenty four hours prior to the addition of the tested compounds, the cells were plated in 96-well plates (Sarstedt, Germany) at a density of 1 × 10^4 or 0.5× 10^4 (HCT116) cells per well. The assay was performed after 72 h of exposure to varying concentrations of the tested agents. The in vitro cytotoxic effect of all agents was examined using the MTT (for MV4-11 cell line) or SRB (for A549, HCT116 and BALB/3T3 cell lines) assay. The results were calculated as an IC50 (inhibitory concentration 50)–the dose of tested agent that inhibits proliferation of 50% of the cell population. Each compound in each concentration was tested in triplicate in a single experiment, which was repeated 3–5 times.

[2] = tested on: A549, human non-small-cell lung adenocarcinoma cell line; test: Antiproliferative assay in vitro, SRB, A549; assay type: cell-based; conditions: mean ± SD
Protocol: as §1, §2

[3] = tested on: normal mice fibroblast BALB/3T3; test: Cytotoxicity against normal fibroblasts, SRB, BALB/3T3; assay type: cell-based, mouse; conditions: mean ± SD
Protocol: as §1, §2

[4] = tested on: HCT116, human colon cancer cell line; test: Antiproliferative assay in vitro, SRB, HCT116; assay type: cell-based; conditions: mean ± SD
Protocol: as §1, §2

[5] = tested on: human leukemia MV4-11 cell line; conditions: MV4-11 human leukemia cell line; cited from earlier work
[6] = tested on: A549, human non-small-cell lung adenocarcinoma cell line; set-up: method as in PMID 21207937; conditions: cited from earlier work
[7] = tested on: HCT116, human colon cancer cell line; set-up: method as in PMID 21207937; conditions: cited from earlier work
[8] = Homo sapiens, MV4-11, 72 h exposure
[9] = Homo sapiens, A549, 72 h exposure
[10] = Mus musculus, BALB/3T3, 72 h exposure
[11] = Homo sapiens, HCT-116, 72 h exposure

Row | IC50 [1, 8] [nM] | IC50 [2, 9] [nM] | IC50 [4, 11] [nM] | SMILES | IC50 ([1]; 72 h exposure) | IC50 [3, 10] [nM] | IC50 ([2]; 72 h exposure) [nM] | IC50 ([3]; 72 h exposure) [nM] | IC50 ([4]; 72 h exposure) [nM] | also measured
1 | – | – | – | CC1CCC2C(C)C(OC(=O)CCC(=O)NCCCNc3c4c5ccccc5nc-4n(C)c4ccccc34)OC3OC4(C)CCC1C32OO4 (centres unmarked) [Compound 7a, Artesunate-[N^1-(5-methyl-5H-indolo[2,3-b]quinolin-11-yl)propane-1,3-diamine] hybrid] | 286 ± 79 nM | – | – | – | – | –
2 | 6 ± 2 | – | – | COc1cccc2c1C(=O)c1c(O)c3c(c(O)c1C2=O)C[C@@](O)(C(=O)CO)C[C@@H]3O[C@H]1C[C@H](N)[C@H](O)[C@H](C)O1 [doxorubicin HCl, reference compound] | – | – | – | – | – | –
3 | 286 ± 127 | 1330 ± 586 | 557 ± 85 | CC1CCC2C(C)C(OC(=O)CCC(=O)NCCCNc3c4ccccc4nc4c3[nH]c3ccccc34)OC3OC4(C)CCC1C32OO4 (centres unmarked) [Compound 8, Artesunate-[11-(3-aminopropylamino)-10H-indolo[3,2-b]quinoline] hybrid] | – | 2720 ± 731 | – | – | – | –
4 | – | 649 ± 80 | 130 ± 14 | COC(=O)c1ccc2c(c1)c(NCCCN)c1c3ccccc3nc-1n2C [Compound 4d, methyl 11-(3-aminopropylamino)-5-methyl-5H-indolo[2,3-b]quinoline-2-carboxylate] | – | 768 ± 155 | – | – | – | IC50 [5]: 86 ± 20 nM
5 | – | – | – | CC1CCC2C(C)C(OC(=O)CCC(=O)NCC(C)(C)CNc3c4c5ccccc5nc-4n(C)c4ccc(Br)cc34)OC3OC4(C)CCC1C32OO4 (centres unmarked) [Compound 7c, Artesunate-[N^1-(2-bromo-5-methyl-5H-indolo[2,3-b]quinolin-11-yl)-2,2-dimethylpropane-1,3-diamine] hybrid] | 242 ± 31 nM | – | – | – | – | –
6 | – | – | – | N.N.[Cl][Pt][Cl] [cisplatin, reference compound] | 2820 ± 450 nM | – | 8960 ± 3330 | 9500 ± 500 | 9460 ± 1300 | –
7 | – | – | – | CC1CCC2C(C)C(OC(=O)CCC(=O)NCC(C)(C)CNc3c4c5ccccc5nc-4n(C)c4ccc(Cl)cc34)OC3OC4(C)CCC1C32OO4 (centres unmarked) [Compound 7b, Artesunate-[N^1-(2-chloro-5-methyl-5H-indolo[2,3-b]quinolin-11-yl)-2,2-dimethjylpropane-1,3-diamine] hybrid] | ~72 nM and 72 nM | – | 4560 ± 2090 | 6420 ± 996 | 893 ± 397 | –
8 | – | – | – | COC(=O)c1ccc2c(c1)c(NCCCNC(=O)CCC(=O)OC1OC3OC4(C)CCC5C(C)CCC(C1C)C35OO4)c1c3ccccc3nc-1n2C (centres unmarked) [Compound 7d, Artesunate-[methyl 11-(3-aminopropylamino)-5-methyl-5H-indolo[2,3-b]quinoline-2-carboxylate] hybride] | 148 ± 15 nM | – | 3660 ± 535 | 4950 ± 220 | 1760 ± 329 | –
9 | – | – | – | Cn1c2nc3ccccc3c-2c(NCCCN)c2ccccc21 [Compound 4a, N^1-(5-methyl-5H-indolo[2,3-b]quinolin-11-yl)propane-1,3-diamine] | – | – | – | – | – | IC50 [5]: 66 ± 23 nM
10 | – | – | – | C[C@H]1[C@@H](O)O[C@@H]2O[C@@]3(C)CC[C@H]4[C@H](C)CC[C@@H]1[C@@]24OO3 [DHA (2), dihydroartemisinin] | – | – | – | – | – | IC50 [6]: > 20000 nM; IC50 [7]: 1340 ± 1060 nM
11 | 124 ± 10 | 172 ± 52 | 258 ± 107 | NCCCNc1nc2ccccc2c2[nH]c3ccccc3c12 [Compound 6, 6-(3-aminopropylamino)-11H-indolo[3,2-c]quinoline] | – | 1050 ± 127 | – | – | – | –
12 | 128 ± 36 | 1810 ± 516 | 855 ± 235 | CC1CCC2C(C)C(OC(=O)CCC(=O)NCCCNc3nc4ccccc4c4[nH]c5ccccc5c34)OC3OC4(C)CCC1C32OO4 (centres unmarked) [Compound 9] | – | 4980 ± 471 | – | – | – | –
13 | – | – | – | COC(=O)c1ccc2c(c1)c(NCC(C)(C)CNC(=O)CCC(=O)OC1OC3OC4(C)CCC5C(C)CCC(C1C)C35OO4)c1c3ccccc3nc-1n2C (centres unmarked) [Compound 7e, Artesunate-[methyl 11-(3-amino-2,2-dimethylpropylamino)-5-methyl-5H-indolo[2,3-b]quinoline-2-carboxylate] hybrid] | 75 ± 1 nM | – | 5060 ± 911 | 5940 ± 1160 | 2210 ± 687 | –
